ChEMBL document CHEMBL1130565, “Development of the new potent non-peptide gpIIb/IIIa antagonist NSL-95301 by utilizing combinatorial technique” (Bioorg Med Chem Lett, 1997)
pIC50: −log10 of the molar value.

Species: Homo sapiens
Assay: In vitro collagen induced platelet aggregation inhibitory activity using human platelet rich plasma anti-coagulated with 0.38% trisodium citrate
Format: functional

SMILES | pIC50 (Homo sapiens, Plasma) | pIC50
CCC(C(=O)N1CCC(CC(=O)O)CC1)C(NC(=O)c1ccc(C(=N)N)cc1)c1ccccc1 (stereo not drawn) | 4.80 | 
C[C@@H](CC(=O)N1CCC(CC(=O)O)CC1)NC(=O)c1ccc(C(=N)N)cc1 | 5.30 | 
C[C@H](NC(=O)c1ccc(C(=N)N)cc1)C(=O)N1CCC(CC(=O)O)CC1 | 4.52 | 
N=C(N)Nc1ccc(C(=O)NCCC(=O)N2CCC(C(=O)O)CC2)cc1 | 3.12 | 
N=C(N)c1ccc(C(=O)N[C@@H](CC(=O)N2CCC(CC(=O)O)CC2)C(=O)Oc2ccccc2)cc1 | 5.39 | 
CN(CC(=O)N1CCC(CC(=O)O)CC1)C(=O)c1ccc(CN=C(N)N)cc1 | < 3.00 | 
CC(C)[C@@H](CC(=O)N1CCC(CC(=O)O)CC1)NC(=O)c1ccc(C(=N)N)cc1 | 5.04 | 
N=C(N)c1ccc(C(=O)N[C@H](CC(=O)N2CCC(CC(=O)O)CC2)c2ccccc2)cc1 | 5.28 | 
C[C@H](NC(=O)c1ccc(NC(=N)N)cc1)C(=O)N1CCC(C(=O)O)CC1 | < 3.00 | 
CCCCC(CNC(=O)c1ccc(C(=N)N)cc1)C(=O)N1CCC(CC(=O)O)CC1 (stereo not drawn) | 5.42 | 
N=C(N)c1ccc(C(=O)N[C@@H](CC(=O)N2CCC(CC(=O)O)CC2)C(=O)OC2CCCCC2)cc1 | 5.72 | 
CN(CC(=O)N1CCC(CC(=O)O)CC1)C(=O)c1ccc(C(=N)N)cc1 | 5.12 | 
N=C(N)NCc1ccc(C(=O)NCCC(=O)N2CCC(C(=O)O)CC2)cc1 | < 3.00 | 
N=C(N)c1ccc(C(=O)N2CCCC(C(=O)N3CCC(CC(=O)O)CC3)C2)cc1 (stereo not drawn) | 4.60 | 
CC(C)C(CNC(=O)c1ccc(C(=N)N)cc1)C(=O)N1CCC(CC(=O)O)CC1 (stereo not drawn) | 4.60 | 
N=C(N)c1ccc(C(=O)NCC(Cc2ccccc2)C(=O)N2CCC(CC(=O)O)CC2)cc1 (stereo not drawn) | 5.39 | 
CC(C)C(C(=O)N1CCC(CC(=O)O)CC1)C(NC(=O)c1ccc(C(=N)N)cc1)c1ccccc1 (stereo not drawn) | 4.09 | 

SMILES | pIC50 (Homo sapiens, Plasma) | pIC50
CC(CNC(=O)c1ccc(C(=N)N)cc1)C(=O)N1CCC(CC(=O)O)CC1 (stereo not drawn) | 6.23 | 
C[C@H](NC(=O)c1ccc(CN=C(N)N)cc1)C(=O)N1CCC(C(=O)O)CC1 | 3.15 | 
CN(CCC(=O)N1CCC(CC(=O)O)CC1)C(=O)c1ccc(C(=N)N)cc1 | 5.19 | 
N=C(N)c1ccc(C(=O)NCCC(=O)N2CCC(OCC(=O)O)CC2)cc1 | 4.74 | 
C[C@H](NC(=O)c1ccc(C(=N)N)cc1)C(=O)N1CCC(C(=O)O)CC1 | 3.96 | 
CN(CC(=O)N1CCC(C(=O)O)CC1)C(=O)c1ccc(CN=C(N)N)cc1 | 4.28 | 
N=C(N)c1ccc(C(=O)NCCC(=O)N2CCC(C(=O)O)CC2)cc1 | 4.48 | 
N=C(N)c1ccc(C(=O)NCC(Cc2ccc(O)cc2)C(=O)N2CCC(CC(=O)O)CC2)cc1 (stereo not drawn) | 6.03 | 
N=C(N)c1ccc(C(=O)N2CCCC2CC(=O)N2CCC(CC(=O)O)CC2)cc1 (stereo not drawn) | 5.37 | 
CC(C)(CNC(=O)c1ccc(C(=N)N)cc1)C(=O)N1CCC(CC(=O)O)CC1 | 6.24 | 
CN(CC(=O)N1CCC(C(=O)O)CC1)C(=O)c1ccc(C(=N)N)cc1 | 3.48 | 
CN(CC(=O)N1CCC(C(=O)O)CC1)C(=O)c1ccc(NC(=N)N)cc1 | 4.00 | 
CN(CC(=O)N1CCC(CC(=O)O)CC1)C(=O)c1ccc(NC(=N)N)cc1 | 3.12 | 
CC(C)(C(=O)N1CCC(CC(=O)O)CC1)C(NC(=O)c1ccc(C(=N)N)cc1)c1ccccc1 (single isomer, unassigned; (+)) |  | 7.04
CC(C)(C(=O)N1CCC(CC(=O)O)CC1)C(NC(=O)c1ccc(C(=N)N)cc1)c1ccccc1 (single isomer, unassigned; (-)) |  | 4.51
CC(C)(C(=O)N1CCC(CC(=O)O)CC1)C(NC(=O)c1ccc(C(=N)N)cc1)c1ccccc1 (stereo in doubt; 18) |  | 6.72
